The subject of assay [1] is Fetal Hemoglobin (HbF). Nature of the assay: Small molecule HbF induction assay (erythroid differentiated mPB CD34+ cells, flow cytometry). Type of assay: cell-based, human. The note with it: for EC50: Homo sapiens, mPB CD34+ cells expanded 6 days, erythroid differentiated with compound 7 days, 7-point, 1:3 dilution from 30 uM; for HbF Amax: highest percentage of cells staining positive for HbF (% HbF+ cells) in the fitted dose-response curve, DMSO baseline approximately 30-40%. The protocol:
Cryopreserved primary human CD34^+ hematopoietic stem and progenitor cells were obtained from AllCells, LLC. The CD34^+ cells were isolated from the peripheral blood of healthy donors after mobilization by administration of granulocyte colony-stimulating factor. Cells were differentiated ex vivo toward the erythroid lineage using a 2-phase culture method. In the first phase, cells were cultured in StemSpan™ Serum-Free Expansion Media (SFEM) ([…] Technologies Inc.) supplemented with rhSCF (50 ng/mL, Peprotech®, Inc.), rhIL-6 (50 ng/mL, Peprotech®, Inc.), rhIL-3 (50 ng/mL, Peprotech®, Inc.), and rhFlt3L (50 ng/mL, Peprotech®, Inc.), and 1× antibiotic-antimycotic (Life Technologies, Thermo Fisher Scientific) for 6 days at 37° C. with 5% CO2. During the second phase, cells were cultured in erythroid differentiation media at 5,000 cells/mL in the presence of compound for 7 days at 37° C. with 5% CO2. Erythroid Differentiation Media is comprised of IMDM (Life Technologies) supplemented with insulin (10 μg/mL, Sigma Aldrich), heparin (2 U/mL Sigma Aldrich), holo-transferrin (330 μg/mL, Sigma Aldrich), human serum AB (5%, Sigma Aldrich), hydrocortisone (1 μM, […] Technologies), rhSCF (100 ng/mL, Peprotech®, Inc.), rhIL-3 (5 ng/mL, Peprotech®, Inc.), rhEPO (3 U/mL, Peprotech®, Inc.), and 1× antibiotic-antimycotic. All compounds were dissolved and diluted into dimethylsulfoxide (DMSO) and were added to culture media for a final concentration of 0.3% DMSO for testing in a 7-point, 1:3 dilution series starting at 30 uM.
For viability analysis, samples were washed and resuspended in phosphate-buffered saline (PBS) and stained with LIVE/DEAD™ Fixable Violet Dead Cell Stain Kit (Life Technologies, L34963) for 20 minutes. Cells were then washed again with PBS and resuspended in PBS supplemented with 2% fetal bovine serum (FBS), and 2 mM EDTA to prepare for cell surface marker analysis. Cells were labeled with allophycocyanin-conjugated CD235a (1:100, BD Biosciences, 551336) and Brilliant Violet-conjugated CD71 (1:100, BD Biosciences, 563767) antibodies for 20 minutes. For analysis of cytoplasmic Fetal Hemoglobin (HbF), cells were fixed and permeabilized using the Fixation (BioLegend®, 420801) and Permeabilization Wash (BioLegend®, 421002) Buffers according to the manufacturer's protocol. During the permeabilization step, cells were stained with phycoerythrin-conjugated or FITC-conjugated HbF-specific antibody (1:10-1:25, Invitrogen™, MHFH04-4) for 30 minutes. Stained cells were washed with phosphate-buffered saline before analysis on the FACSCanto™ I1 flow cytometer or LSRFortessa™ (BD Biosciences). […]
mPB CD34+ cells were expanded for 6 days, then erythroid differentiated in the presence of compound for 7 days. Cells were fixed, stained and analyzed by flow cytometry. […]
(Flow cytometry measures light scatter and fluorescence of single cells or particles in a stream.)

For assay [2], the target named is T1, WIZ (Homo sapiens, UniProt O95785+Q96SW2).
T1 construct: expressed in transfected cells
Nature of the assay: Quantification of WIZ protein levels in HiBit tag fusion protein assay (WIZ HiBit assay in 293T cells). Type of assay: cell-based. To be noted: for Dmax at 25 µM / remaining activity at 25 µM: HEK-293T; for Dmax at 25 µM: read-out: % degradation of WIZ (100-Amax); for remaining activity at 25 µM: read-out: WIZ Amax; for DC50: WIZ HiBit assay in 293T cells, 10-point, 5-fold dilution, highest concentration 25 μM, about 18 hours, read-out: WIZ AC50. A digest of the protocol:
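293T cells stably carrying single-copy HiBit-WIZ (HSVTK promoter) treated ~18 h at 37 °C with 10-point, 5-fold dilutions, top 25 μM. Lytic HiBit luminescence read; Amax is DMSO-normalised, curve-fitted % WIZ-HiBit remaining at 25 uM.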
Background: With HiBiT, luminescence reflects the tagged protein that the partner subunit can reach.

Where [3] appears, read: DMSO-normalized, curve-fitted percentage of WIZ-HiBit remaining at 25 uM.

T1 sequence (O95785 whole entry): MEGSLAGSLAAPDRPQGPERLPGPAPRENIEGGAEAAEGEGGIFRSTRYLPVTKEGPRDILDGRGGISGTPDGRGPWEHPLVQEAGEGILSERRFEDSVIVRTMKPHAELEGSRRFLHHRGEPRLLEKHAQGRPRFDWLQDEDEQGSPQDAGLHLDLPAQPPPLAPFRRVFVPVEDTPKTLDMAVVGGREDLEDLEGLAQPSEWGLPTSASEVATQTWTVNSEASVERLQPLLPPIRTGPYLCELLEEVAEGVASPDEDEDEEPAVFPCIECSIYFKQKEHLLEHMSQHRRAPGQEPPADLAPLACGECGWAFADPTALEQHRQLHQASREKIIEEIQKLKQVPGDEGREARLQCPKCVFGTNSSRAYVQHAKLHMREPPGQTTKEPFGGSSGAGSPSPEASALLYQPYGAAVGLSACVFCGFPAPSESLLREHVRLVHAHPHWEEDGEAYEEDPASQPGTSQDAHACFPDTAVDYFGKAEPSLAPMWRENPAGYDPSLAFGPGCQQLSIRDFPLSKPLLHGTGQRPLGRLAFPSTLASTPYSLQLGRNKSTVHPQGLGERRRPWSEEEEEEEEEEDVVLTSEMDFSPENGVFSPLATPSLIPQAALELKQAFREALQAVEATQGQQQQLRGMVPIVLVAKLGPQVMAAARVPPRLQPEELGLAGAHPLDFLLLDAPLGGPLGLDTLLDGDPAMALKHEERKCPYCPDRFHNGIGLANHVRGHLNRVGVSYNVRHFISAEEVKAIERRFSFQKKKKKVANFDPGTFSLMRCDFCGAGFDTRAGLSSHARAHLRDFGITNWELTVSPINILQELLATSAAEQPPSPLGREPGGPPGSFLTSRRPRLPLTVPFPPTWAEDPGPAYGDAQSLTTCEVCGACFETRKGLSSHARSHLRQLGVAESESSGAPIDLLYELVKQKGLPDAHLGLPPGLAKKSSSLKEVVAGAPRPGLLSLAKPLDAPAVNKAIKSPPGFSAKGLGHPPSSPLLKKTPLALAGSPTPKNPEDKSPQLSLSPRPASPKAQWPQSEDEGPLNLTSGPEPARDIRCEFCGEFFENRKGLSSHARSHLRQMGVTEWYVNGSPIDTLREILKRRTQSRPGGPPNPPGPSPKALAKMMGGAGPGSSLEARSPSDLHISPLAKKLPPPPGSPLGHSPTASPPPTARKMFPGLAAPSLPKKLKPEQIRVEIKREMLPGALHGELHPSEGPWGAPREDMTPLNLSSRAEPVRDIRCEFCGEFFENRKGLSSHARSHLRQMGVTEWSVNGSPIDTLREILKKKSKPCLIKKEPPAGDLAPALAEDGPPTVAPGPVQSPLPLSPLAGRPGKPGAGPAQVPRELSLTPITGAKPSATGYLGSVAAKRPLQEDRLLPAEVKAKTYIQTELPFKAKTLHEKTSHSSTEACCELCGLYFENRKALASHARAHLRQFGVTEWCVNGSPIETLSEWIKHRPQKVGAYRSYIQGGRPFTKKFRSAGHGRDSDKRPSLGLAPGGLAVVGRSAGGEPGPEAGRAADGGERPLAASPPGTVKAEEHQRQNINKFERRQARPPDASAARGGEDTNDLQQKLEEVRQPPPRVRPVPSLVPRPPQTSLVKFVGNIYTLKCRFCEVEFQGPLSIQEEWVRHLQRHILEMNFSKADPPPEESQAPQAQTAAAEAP
T1 sequence (Q96SW2 whole entry): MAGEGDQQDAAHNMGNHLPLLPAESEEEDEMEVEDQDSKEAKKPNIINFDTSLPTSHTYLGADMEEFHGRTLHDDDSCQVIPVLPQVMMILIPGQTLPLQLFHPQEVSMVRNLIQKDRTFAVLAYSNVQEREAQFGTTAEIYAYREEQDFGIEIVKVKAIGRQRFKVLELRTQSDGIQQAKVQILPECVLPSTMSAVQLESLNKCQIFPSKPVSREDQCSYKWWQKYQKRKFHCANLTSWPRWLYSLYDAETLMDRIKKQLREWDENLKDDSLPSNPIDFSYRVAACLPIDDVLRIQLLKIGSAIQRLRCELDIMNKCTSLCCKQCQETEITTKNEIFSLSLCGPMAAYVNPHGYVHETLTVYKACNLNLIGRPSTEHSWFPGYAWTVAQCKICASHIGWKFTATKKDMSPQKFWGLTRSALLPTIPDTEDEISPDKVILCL
T1 sequence (Q16531 whole entry partner): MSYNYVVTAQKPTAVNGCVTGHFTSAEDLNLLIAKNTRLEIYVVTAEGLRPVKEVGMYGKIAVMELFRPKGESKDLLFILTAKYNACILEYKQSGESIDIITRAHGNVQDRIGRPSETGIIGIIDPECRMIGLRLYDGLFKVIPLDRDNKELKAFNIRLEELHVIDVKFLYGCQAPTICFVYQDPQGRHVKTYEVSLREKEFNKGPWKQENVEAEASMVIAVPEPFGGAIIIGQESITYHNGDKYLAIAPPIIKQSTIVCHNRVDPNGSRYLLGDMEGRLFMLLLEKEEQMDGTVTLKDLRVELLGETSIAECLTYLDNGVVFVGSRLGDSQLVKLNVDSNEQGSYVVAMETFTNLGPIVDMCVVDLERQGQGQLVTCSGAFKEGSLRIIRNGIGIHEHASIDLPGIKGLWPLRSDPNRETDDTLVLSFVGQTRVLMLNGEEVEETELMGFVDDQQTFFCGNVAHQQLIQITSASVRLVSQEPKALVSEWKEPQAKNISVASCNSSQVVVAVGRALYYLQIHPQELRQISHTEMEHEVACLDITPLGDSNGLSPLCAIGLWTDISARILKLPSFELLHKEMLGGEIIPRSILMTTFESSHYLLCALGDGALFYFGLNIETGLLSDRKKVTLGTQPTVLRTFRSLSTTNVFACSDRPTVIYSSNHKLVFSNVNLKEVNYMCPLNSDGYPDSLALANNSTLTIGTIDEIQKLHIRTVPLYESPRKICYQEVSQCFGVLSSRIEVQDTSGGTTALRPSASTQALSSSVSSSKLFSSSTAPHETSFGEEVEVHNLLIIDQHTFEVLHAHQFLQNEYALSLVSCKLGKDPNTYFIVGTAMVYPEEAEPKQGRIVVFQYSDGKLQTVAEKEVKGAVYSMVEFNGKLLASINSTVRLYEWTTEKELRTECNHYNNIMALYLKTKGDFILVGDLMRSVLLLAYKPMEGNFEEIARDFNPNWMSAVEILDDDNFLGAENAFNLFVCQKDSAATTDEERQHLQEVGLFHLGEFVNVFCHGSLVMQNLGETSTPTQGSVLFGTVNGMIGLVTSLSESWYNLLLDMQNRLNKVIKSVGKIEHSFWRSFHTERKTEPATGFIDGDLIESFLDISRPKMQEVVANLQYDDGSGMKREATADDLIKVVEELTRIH

As usually defined, the EC50 is the concentration that produces a half-maximal response. Regarding `C[C@@H]1CN(C)CCN1Cc1ccc2onc(N3CCC(=O)NC3=O)c2c1` [Example 65, (R)-1-(5-((2,4-dimethylpiperazin-1-yl)methyl)benzo[d]isoxazol-3-yl)dihydropyrimidine-2,4(1H,3H)-dione], in assay [1], the concentration giving a half-maximal response (EC50) came to 172 nM and the “HbF Amax” value stood at 76%. Moreover, in assay [2] (100 minus Amax at 25 uM), the Dmax at 25 µM stood at 84%. Further, the remaining activity at 25 µM in assay [2] (setting [3]) was determined as 16%. Also, the DC50 in assay [2] is 89 nM.

On to `C[C@H]1CN(Cc2ccc3onc(N4CCC(=O)NC4=O)c3c2)CCN1C` [Example 29, (S)-1-(5-((3,4-dimethylpiperazin-1-yl)methyl)benzo[d]isoxazol-3-yl)dihydropyrimidine-2,4(1H,3H)-dione], for which, in assay [1], the EC50 came to 45 nM and the “HbF Amax” value was found to be 80%. For the same compound, the Dmax at 25 µM in assay [2] (100 minus Amax at 25 uM) is 89%. Moreover, in assay [2] (setting [3]), the remaining activity at 25 µM is 11%. In addition, the DC50 in assay [2] stood at 6.4 nM.

In the case of `CC(C)CN1CCN(Cc2ccc3onc(N4CCC(=O)NC4=O)c3c2)[C@H](C)C1` [Example 33, (R)-1-(5-((4-isobutyl-2-methylpiperazin-1-yl)methyl)benzo[d]isoxazol-3-yl)dihydropyrimidine-2,4(1H,3H)-dione], in assay [2] (100 minus Amax at 25 uM), the Dmax at 25 µM amounted to 88%. For the same compound, in assay [2] (setting [3]), the remaining activity at 25 µM was determined as 12%. The DC50 in assay [2] came to 32 nM.

For the compound `Cc1c(CN2CCN(C)[C@@H](C)C2)ccc2onc(N3CCC(=O)NC3=O)c12` [Example 129, (S)-1-(5-((3,4-dimethylpiperazin-1-yl)methyl)-4-methylbenzo[d]isoxazol-3-yl)dihydropyrimidine-2,4(1H,3H)-dione], in assay [2] (100 minus Amax at 25 uM), the Dmax at 25 µM stood at 86%. Further, the remaining activity at 25 µM in assay [2] (setting [3]) came to 14%. Moreover, the DC50 in assay [2] worked out at 9 nM.

With `CN1C[C@H]2C[C@@H]1CN2Cc1ccc2onc(N3CCC(=O)NC3=O)c2c1` [Example 97], the Dmax at 25 µM in assay [2] (100 minus Amax at 25 uM) was 84%. In assay [2] (setting [3]), the remaining activity at 25 µM turned out to be 16%. The DC50 in assay [2] is 192 nM.

Turning to `CN1CCC(Cc2ccc3onc(N4CCC(=O)NC4=O)c3c2)C1` (stereo not shown) [Example 50, 1-(5-((1-methylpyrrolidin-3-yl)methyl)benzo[d]isoxazol-3-yl)dihydropyrimidine-2,4(1H,3H)-dione], the Dmax at 25 µM in assay [2] (100 minus Amax at 25 uM) is 78%. In addition, the remaining activity at 25 µM in assay [2] (setting [3]) worked out at 22%. The DC50 in assay [2] came to 448 nM.

For `O=C1CCN(c2noc3ccc(CN4CCN(Cc5cccnc5)CC4)cc23)C(=O)N1` [Example 26, 1-(5-((4-(pyridin-3-ylmethyl)piperazin-1-yl)methyl)benzo[d]isoxazol-3-yl)dihydropyrimidine-2,4(1H,3H)-dione], the Dmax at 25 µM in assay [2] (100 minus Amax at 25 uM) is 86%. For the same compound, the remaining activity at 25 µM in assay [2] (setting [3]) came to 14%. In addition, the DC50 in assay [2] was found to be 190 nM.

On to `CCN1CCN(Cc2ccc3onc(N4CCC(=O)NC4=O)c3c2)CC1` [Example 62, 1-(5-((4-ethylpiperazin-1-yl)methyl)benzo[d]isoxazol-3-yl)dihydropyrimidine-2,4(1H,3H)-dione], for which, in assay [2] (100 minus Amax at 25 uM), the Dmax at 25 µM was 89%. The remaining activity at 25 µM in assay [2] (setting [3]) came out at 11%. Moreover, in assay [2], the DC50 came to 24 nM.

`CN1CCN(Cc2ccc3onc(N4CCC(=O)NC4=O)c3c2)C[C@@H]1C(F)F` [Example 118, (R)-1-(5-((3-(difluoromethyl)-4-methylpiperazin-1-yl)methyl)benzo[d]isoxazol-3-yl)dihydropyrimidine-2,4(1H,3H)-dione]: the Dmax at 25 µM in assay [2] (100 minus Amax at 25 uM) came out at 80%. Besides, the remaining activity at 25 µM in assay [2] (setting [3]) amounted to 20%. Also, in assay [2], the DC50 came out at 208 nM.

For the compound `CC(C)CN1CCCC(Cc2ccc3onc(N4CCC(=O)NC4=O)c3c2)C1` (stereo not shown) [Example 46, 1-(5-((1-isobutylpiperidin-3-yl)methyl)benzo[d]isoxazol-3-yl)dihydropyrimidine-2,4(1H,3H)-dione], the Dmax at 25 µM in assay [2] (100 minus Amax at 25 uM) worked out at 77%. The remaining activity at 25 µM in assay [2] (setting [3]) came to 23%. Further, the DC50 in assay [2] was determined as 197 nM.

With `CC(C)(C)OC(=O)N1[C@@H]2CC[C@H]1CC(Cc1ccc3onc(N4CCC(=O)NC4=O)c3c1)C2` (single isomer, unassigned) [Example 55], the “% degradation of WIZ (100-Amax)” value in assay [2] (100 minus Amax at 25 uM) is given as 70%. The “WIZ Amax” value in assay [2] (setting [3]) came out at 30%. Also, in assay [2], the DC50 turned out to be 3200 nM.

For `O=C1CCN(c2noc3ccc(CN4CCN(Cc5cccc(F)c5)CC4)cc23)C(=O)N1` [Example 27, 1-(5-((4-(3-fluorobenzyl)piperazin-1-yl)methyl)benzo[d]isoxazol-3-yl)dihydropyrimidine-2,4(1H,3H)-dione], the Dmax at 25 µM in assay [2] (100 minus Amax at 25 uM) worked out at 86%. The remaining activity at 25 µM in assay [2] (setting [3]) worked out at 14%. Further, in assay [2], the DC50 came out at 210 nM.

Consider `CC[C@@H]1CN(C)CCN1Cc1ccc2onc(N3CCC(=O)NC3=O)c2c1` [Example 87, (R)-1-(5-((2-ethyl-4-methylpiperazin-1-yl)methyl)benzo[d]isoxazol-3-yl)dihydropyrimidine-2,4(1H,3H)-dione], for which, in assay [2] (100 minus Amax at 25 uM), the Dmax at 25 µM worked out at 83%. Moreover, in assay [2] (setting [3]), the remaining activity at 25 µM stood at 17%. Moreover, in assay [2], the DC50 was determined as 6 nM.

With `C[C@@H]1CN(C2CCC2)CCN1Cc1ccc2onc(N3CCC(=O)NC3=O)c2c1` [Example 77, (R)-1-(5-((4-cyclobutyl-2-methylpiperazin-1-yl)methyl)benzo[d]isoxazol-3-yl)dihydropyrimidine-2,4(1H,3H)-dione], the Dmax at 25 µM in assay [2] (100 minus Amax at 25 uM) was found to be 82%. In assay [2] (setting [3]), the remaining activity at 25 µM was 18%. The DC50 in assay [2] worked out at 22 nM.

Source of the values: patent publication US20250276964A1 (Novartis AG, priority 2021, published 2025).
